In patent publication US10125356B2, “Enzymatic methods and enzymes” (Givaudan SA, priority 2007, dated 2018):
Peptide text beside a SMILES is read from it. * marks the point of attachment. Cbz = O=C(OCc1ccccc1)*

Key:
Ax20 peptidase = assay: Substrate specificity of recombinant Ax20 peptidase, cleavage by thin layer chromatography; type: biochemical, Corynebacterium sp. Ax20; set-up: key: (+++) indicating >80% cleavage of a 1 mM solution by 0.1 μg/ml peptidase during an incubation for 1 h; (++) indicates complete cleavage of a 1 mM solution by 1 μg/ml peptidase during an incubation for 1 h; (+) indicates partial cleavage (20-80%) of a 1 mM solution by 1 μg/ml peptidase during an incubation for 1 h; (−) indicating the absence of any cleavage; conditions: 1 mM solution, 0.1 or 1 μg/ml peptidase, incubation 1 h
Protocol: The recombinant Ax20 peptidase formed as described in example 3 (affinity column purified tagged enzyme) was incubated with different compounds, in particular potential candidate dipeptide substrates, to characterize the substrate specificity and to identify substrates useful for screening assays (for example to screen for modulators including inhibitors).
The table below lists the tested compounds (mostly dipeptides indicated by their short names, e.g. ala-gly for an alanine-glycine dipeptide) and indicates whether they are cleaved by the peptidase. Z indicates a benzyloxy-carbonyl protecting group at the N-terminus of the peptide.
Cleavage was determined by thin layer chromatography.
Amounts are qualitative with (+++) indicating >80% cleavage of a 1 mM solution by 0.1 μg/ml peptidase during an incubation for 1 h; (++) indicates complete cleavage of a 1 mM solution by 1 μg/ml peptidase during an incubation for 1 h and (+) indicates partial cleavage (20-80%) of a 1 mM solution by 1 μg/ml peptidase during an incubation for 1 h and (−) indicating the absence of any cleavage.

[1] = test system: peptidase (SEQ ID NO:2) and β-lyase; assay: Inhibition of free SH release from S-benzyl-cys-gly by peptidase plus β-lyase, monobromobimane detection; type: biochemical, Corynebacterium sp. Ax20; conditions: peptidase 0.1 μg/ml, β-lyase 5 μg/ml
Protocol: For the results shown below (S-benzyl)-cys-gly was used.
Instead of derivatising the free NH2 group of the conjugate by adding Fluram, the free SH group released from the conjugate by the subsequent action of both enzymes was derivatised by adding monobromobimane (Fluka, Buchs, Switzerland) dissolved in a NaCO3 buffer (100 mM, pH 8.8) to give a final concentration of 0.5 mM to 1 mM. After 5 to 15 min incubation the fluorescence was measured on a Flex-station (Molecular devices, Sunnyvale, Calif., USA) with an excitation wavelength of 385 nm and an emission wavelength of 480 nm.

[2] = test system: Ax20 peptidase (SEQ ID NO: 2); assay: Inhibition of Pro-Gly cleavage by recombinant Ax20 peptidase, fluorescamine detection of free NH2; type: biochemical, Corynebacterium sp. Ax20; conditions: Pro-Gly 1 mM, 1 μg/ml peptidase, 60 min at 37° C.
Protocol: Cleavage of the peptide substrate Pro-Gly by addition of the recombinant Ax20 peptidase (SEQ ID NO: 2) released a unique free NH2 group which can be derivatized by fluorescamine (Fluram™, Fluka, Buchs, Switzerland). Test compounds (for example, potential enzyme inhibitors) are dissolved in dimethylsulfoxid (DMSO), for example in individual wells of a microtiter plate. […] Controls are run in parallel and subjected to the same procedure. A positive control contains DMSO without inhibitor, a negative control contains no substrate.

[3] = target: T1, AMRE enzyme (Nα-acyl-glutamine-aminoacylase) (Corynebacterium striatum, UniProt Q8GGD4); assay: Inhibition of AMRE-catalysed release of free NH2 groups from N-Lauroyl-glutamine; type: biochemical
T1 construct: made in house
Protocol: In an additional step to example 7 or 8, the identified peptidase inhibitors were tested for their modulating effect against the AMRE enzyme (Nα-acyl-glutamine-aminoacylase described by Natsch in EP1258531), thereby identifying dual inhibitors of both metallopeptidase enzymes involved in malodour release.
AMRE is formed as described in example 6 of EP1258531.

T1 sequence (Q8GGD4 whole entry): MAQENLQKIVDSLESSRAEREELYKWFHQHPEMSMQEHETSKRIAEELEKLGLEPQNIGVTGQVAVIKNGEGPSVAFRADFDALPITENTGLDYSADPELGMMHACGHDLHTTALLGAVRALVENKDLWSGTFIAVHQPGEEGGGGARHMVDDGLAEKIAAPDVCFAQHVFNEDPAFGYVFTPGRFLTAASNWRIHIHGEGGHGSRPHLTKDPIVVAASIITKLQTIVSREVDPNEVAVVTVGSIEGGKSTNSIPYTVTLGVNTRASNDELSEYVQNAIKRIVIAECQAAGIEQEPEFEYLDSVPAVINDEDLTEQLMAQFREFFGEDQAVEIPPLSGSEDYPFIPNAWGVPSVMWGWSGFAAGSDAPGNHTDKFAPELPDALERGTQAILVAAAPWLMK

| Structure (SMILES) | Cleavage (Ax20 peptidase) | Inhibition of release of free SH groups from S-benzyl-cys-gly in presence of peptidase and β-lyase ([1]; test compound 15.625 microM) [% inhibition] | Inhibition of release of free SH groups from S-benzyl-cys-gly in presence of peptidase and β-lyase ([1]; test compound 31.25 microM) [% inhibition] | Inhibition of release of free SH groups from S-benzyl-cys-gly in presence of peptidase and β-lyase ([1]; test compound 62.5 microM) [% inhibition] | Inhibition of release of free NH2 groups from Pro-Gly ([2]; test compound 15.625 microM) [% inhibition] | Inhibition of release of free NH2 groups from Pro-Gly ([2]; test compound 31.25 microM) [% inhibition] | Inhibition of release of free NH2 groups from Pro-Gly ([2]; test compound 62.5 microM) [% inhibition] | Inhibition of release of free NH2 groups from N-Lauroyl-glutamine (catalyzed by AMRE) ([3]; test compound 15.625 microM) [% inhibition] | Inhibition of release of free NH2 groups from N-Lauroyl-glutamine (catalyzed by AMRE) ([3]; test compound 31.25 microM) [% inhibition] | Inhibition of release of free NH2 groups from N-Lauroyl-glutamine (catalyzed by AMRE) ([3]; test compound 62.5 microM) [% inhibition] |
| --- | --- | --- | --- | --- | --- | --- | --- | --- | --- | --- |
| NCC(=O)NCC(=O)O [Gly-Gly] (H-Gly-Gly-OH) | + ((+) indicates partial cleavage (20-80%) of a 1 mM solution by 1 μg/ml peptidase during an incubation for 1 h) |  |  |  |  |  |  |  |  |  |
| O=C(O)CNCCNCC(=O)O [ethylendiamine-N,N′-diacetic acid] |  | 50.2 | 73.1 | 90.4 | 65.7 | 81.0 | 93.9 | 7.4 | 7.2 | 42.7 |
| O=C(O)CNC(=O)C1CCCN1 (centres unmarked) [Pro-Gly] | + ((+) indicates partial cleavage (20-80%) of a 1 mM solution by 1 μg/ml peptidase during an incubation for 1 h) |  |  |  |  |  |  |  |  |  |
| O=C(O)CNC(=O)OCc1ccccc1 [Z-Gly] | − |  |  |  |  |  |  |  |  |  |
| O=C(O)CSCCSCC(=O)O [2,2′-Ethylendithio-diacetic acid] |  | −10.1 | −9.1 | −8.7 | 0.1 | −2.6 | −5.3 | 22.4 | 12.7 | 19.6 |
| O=C(O)CNC(=O)CNC(=O)OCc1ccccc1 [Z-Gly-Gly] (Cbz-Gly-Gly-OH) | − |  |  |  |  |  |  |  |  |  |
| NC(CSCc1ccccc1)C(=O)NCC(=O)O (centres unmarked) [H-Cys(Bzl)-Gly-OH, S-benzyl-Cys-Gly] | +++ ((+++) indicating >80% cleavage of a 1 mM solution by 0.1 μg/ml peptidase during an incubation for 1 h) |  |  |  |  |  |  |  |  |  |
| O=C(O)CN(CCN(CC(=O)O)CC(=O)O)CC(=O)O [Ethylenediaminetetraacetic acid] |  | 99.3 | 96.5 | 99.0 | 101.0 | 102.6 | 101.4 | 62.4 | 59.8 | 61.6 |
| C[C@H](NC(=O)OCc1ccccc1)C(=O)O [Z-Ala] | − |  |  |  |  |  |  |  |  |  |
| CC(N)C(=O)NC(C)C(=O)O (centres unmarked) [Ala-Ala] | ++ |  |  |  |  |  |  |  |  |  |
| CC(N)C(=O)NCC(=O)O (centres unmarked) [Ala-Gly] | ++ |  |  |  |  |  |  |  |  |  |
| O=C(O)c1cccc(C(=O)O)n1 [pyridine-2,6-dicarboxylic acid] |  | 49.6 | 83.4 | 95.9 | 72.4 | 92.4 | 100.9 | 28.8 | 52.0 | 72.2 |
